In patent US9763445B2, “Safened herbicidal compositions comprising a pyridine carboxylic acid herbicide” (Dow AgroSciences, LLC, priority 2014, dated 2017):

Assays:
[1] = system: bird's-eye speedwell (VERPE); assay: Postemergence greenhouse trial, % visual injury on bird's-eye speedwell; type: in vivo, Veronica persica; conditions: VERPE
Protocol: (§1) Seeds of the desired test plant species were planted in Sun Gro MetroMix® 306 planting mixture, which typically has a pH of 6.0 to 6.8 and an organic matter content of about 30 percent, in plastic pots with a surface area of 103.2 square centimeters (cm^2). When required to ensure good germination and healthy plants, a fungicide treatment and/or other chemical or physical treatment was applied. The plants were grown for 7-36 days (d) in a greenhouse with an approximate 14-hour (h) photoperiod which was maintained at about 23° C. during the day and 22° C. during the night. Nutrients and water were added on a regular basis and supplemental lighting was provided with overhead metal halide 1000-Watt lamps as necessary. The plants were employed for testing when they reached the second or third true leaf stage.
(§2) Weighed amounts of technical material were dissolved in a volume of 97:3 volume per volume (v/v) acetone/dimethyl sulfoxide (DMSO) to stock solutions. […] The concentrated stock solutions were diluted with an aqueous mixture of 1.5% v/v of Agri-dex crop oil concentrate to provide the appropriate application rates. Compound requirements are based upon a 12 milliliter (mL) application volume at a rate of 187 liters per hectare (L/ha). Stocks solutions of the safeners were prepared following the same procedure. Spray solutions of the safeners and experimental compound mixtures were prepared by adding the stock solutions to the appropriate amount of dilution solution to form a 12 mL spray solution in two-way combinations. Formulated compounds were applied to the plant material with an overhead Mandel track sprayer equipped with 8002E nozzles calibrated to deliver 187 L/ha over an application area of 0.503 square meters (m^2) at a spray height of 18 inches (43 centimeters (cm)) above average plant canopy. Control plants were sprayed in the same manner with the solvent blank. All herbicide application (component a) rates are in g ae/ha and all safener (component b) rates are in g ai/ha.
(§3) The treated plants and control plants were placed in a greenhouse as described above and watered by sub-irrigation to prevent wash-off of the test compounds. After 20-22 d, the condition of the test plants as compared with that of the control plants was determined visually and scored on a scale of 0 to 100 percent where 0 corresponds to no injury and 100 corresponds to complete kill. […] Colby's equation was used to determine the herbicidal effects expected from the mixtures. […]

[2] = system: winter rape (BRSNW); assay: Postemergence greenhouse trial, % visual injury on winter rape; type: in vivo, Brassica napus; conditions: BRSNW; for plant injury at 4.38 g/ha / plant injury at 8.75 g/ha / plant injury at 17.5 g/ha / plant injury at 35 g/ha / plant injury at 70 g/ha: Brassica napus, post-emergence, CQC-m 0, read-out: % visual injury, Ob; for plant injury at 4.38 g/ha: compound 4.380 g/ha; for % visual injury, Ob: CQC-m 0 g/ha
Procedure, shortened: (§4)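 Plants at second or third true leaf stage, greenhouse-grown (14 h photoperiod, ~23/22° C.), sprayed postemergence with compounds alone or with safener cloquintocet-mexyl in 1.5% v/v Agri-dex crop oil at 187 L/ha. Visual injury scored 0–100% versus solvent-blank controls after 20-22 d; expected mixture effects by Colby's equation.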

[3] = system: spring wheat (TRZAS); assay: Postemergence greenhouse trial, % visual injury on spring wheat; type: in vivo, Triticum aestivum; conditions: TRZAS
Procedure, shortened: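 Postemergence greenhouse spray (187 L/ha, 1.5% v/v Agri-dex in water, acetone/DMSO stocks) on plants at second–third true leaf stage, ~23/22 °C, 14 h photoperiod; herbicides in g ae/ha, safener cloquintocet-mexyl in g ai/ha. Visual injury 0–100% versus solvent-blank controls after 20–22 d; Colby's equation gave expected mixture effects.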

[4] = system: thistle (CIRAR); assay: Postemergence greenhouse trial, % visual injury on thistle; type: in vivo, Cirsium arvense; conditions: Cirsium arvense, post-emergence, CIRAR, CQC-m 0, read-out: % visual injury, Ob; for pest or weed control at 4.38 g/ha: compound 4.380 g/ha; for pest or weed control at 8.75 g/ha: compound 8.75 g/ha; for pest or weed control at 17.5 g/ha: compound 17.5 g/ha; for pest or weed control at 35 g/ha: compound 35 g/ha; for pest or weed control at 70 g/ha: compound 70 g/ha
Procedure, shortened: as §4

[5] = system: common poppy (PAPRH); assay: Postemergence greenhouse trial, % visual injury on common poppy; type: in vivo, Papaver rhoeas; conditions: PAPRH; for % visual injury, Ob: CQC-m 0 g/ha; for pest or weed control at 4.38 g/ha / pest or weed control at 8.75 g/ha / pest or weed control at 17.5 g/ha / pest or weed control at 35 g/ha / pest or weed control at 70 g/ha: Papaver rhoeas, post-emergence, CQC-m 0, read-out: % visual injury, Ob; for pest or weed control at 4.38 g/ha: compound 4.380 g/ha; for pest or weed control at 70 g/ha: compound 70 g/ha
Procedure, shortened: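 Herbicide rates g ae/ha, safener (cloquintocet-mexyl) rates g ai/ha; spray carrier 1.5% v/v crop oil concentrate, 187 L/ha, 2nd–3rd leaf stage. Rating: visual % injury at 20-22 d.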

[6] = system: purple deadnettle (LAMPU); assay: Postemergence greenhouse trial, % visual injury on purple deadnettle; type: in vivo, Lamium purpureum; conditions: LAMPU
Protocol: as §1, §2, §3

[7] = compound 4.375 g/ha, CQC-m 0 g/ha
[8] = compound 8.75 g/ha, CQC-m 0 g/ha
[9] = compound 17.5 g/ha, CQC-m 0 g/ha

Compound: CO/C=N/c1c(F)c(-c2ccc3cc[nH]c3c2F)nc(C(=O)OC)c1Cl [compound 10]
- % visual injury, Ob ([1]; compound 4.380 g/ha, CQC-m 0): 70%
- % visual injury, Ob ([1]; compound 8.75 g/ha, CQC-m 0): 85%
- % visual injury, Ob ([1]; compound 17.5 g/ha, CQC-m 0): 90%
- % visual injury, Ob ([1]; compound 35 g/ha, CQC-m 0): 100%
- % visual injury, Ob ([1]; compound 70 g/ha, CQC-m 0): 100%
- plant injury at 4.38 g/ha [2]: 85%
- plant injury at 8.75 g/ha ([2]; compound 8.75 g/ha): 95%
- plant injury at 17.5 g/ha ([2]; compound 17.5 g/ha): 100%
- plant injury at 35 g/ha ([2]; compound 35 g/ha): 100%
- plant injury at 70 g/ha ([2]; compound 70 g/ha): 100%
- % visual injury, Ob ([3]; compound 4.380 g/ha, CQC-m 0): 10%
- % visual injury, Ob ([3]; compound 8.75 g/ha, CQC-m 0): 25%
- % visual injury, Ob ([3]; compound 17.5 g/ha, CQC-m 0): 40%
- % visual injury, Ob ([3]; compound 35 g/ha, CQC-m 0): 60%
- % visual injury, Ob ([3]; compound 70 g/ha, CQC-m 0): 70%
- pest or weed control at 4.38 g/ha [4]: 30%
- pest or weed control at 8.75 g/ha [4]: 40%
- pest or weed control at 17.5 g/ha [4]: 60%
- pest or weed control at 35 g/ha [4]: 85%
- pest or weed control at 70 g/ha [4]: 100%

Compound: Nc1cc(-c2ccc3cc[nH]c3c2F)nc(C(=O)O)c1Cl [compound 15]
- % visual injury, Ob ([5]; compound 4.375 g/ha): 90%
- % visual injury, Ob ([5]; compound 8.75 g/ha): 100%
- % visual injury, Ob ([5]; compound 17.5 g/ha): 100%
- % visual injury, Ob ([5]; compound 35 g/ha): 100%
- % visual injury, Ob [1, 7]: 85%
- % visual injury, Ob [1, 8]: 85%
- % visual injury, Ob [1, 9]: 90%
- % visual injury, Ob ([1]; compound 35 g/ha, CQC-m 0 g/ha): 93%
- % visual injury, Ob ([1]; compound 70 g/ha, CQC-m 0 g/ha): 95%
- % visual injury, Ob ([2]; compound 4.375 g/ha): 40%
- % visual injury, Ob ([2]; compound 8.75 g/ha): 40%
- % visual injury, Ob ([2]; compound 17.5 g/ha): 50%
- % visual injury, Ob ([2]; compound 35 g/ha): 70%
- % visual injury, Ob ([2]; compound 70 g/ha): 60%
- % visual injury, Ob [6, 7]: 93%
- % visual injury, Ob [6, 8]: 95%
- % visual injury, Ob [6, 9]: 93%
- % visual injury, Ob ([6]; compound 35 g/ha, CQC-m 0 g/ha): 93%
- % visual injury, Ob ([6]; compound 70 g/ha, CQC-m 0 g/ha): 95%
- % visual injury, Ob [3, 7]: 0%
- % visual injury, Ob [3, 8]: 10%
- % visual injury, Ob [3, 9]: 15%
- % visual injury, Ob ([3]; compound 35 g/ha, CQC-m 0 g/ha): 20%
- % visual injury, Ob ([3]; compound 70 g/ha, CQC-m 0 g/ha): 25%

Compound: COC(=O)c1nc(-c2ccc3cc[nH]c3c2F)c(F)c(N)c1OC [compound 12]
- pest or weed control at 4.38 g/ha [5]: 90%
- pest or weed control at 8.75 g/ha ([5]; compound 8.75 g/ha): 93%
- pest or weed control at 17.5 g/ha ([5]; compound 17.5 g/ha): 95%
- pest or weed control at 35 g/ha ([5]; compound 35 g/ha): 100%
- pest or weed control at 70 g/ha [5]: 100%
- % visual injury, Ob ([6]; compound 4.380 g/ha, CQC-m 0): 60%
- % visual injury, Ob ([6]; compound 8.75 g/ha, CQC-m 0): 75%
- % visual injury, Ob ([6]; compound 17.5 g/ha, CQC-m 0): 80%
- % visual injury, Ob ([6]; compound 35 g/ha, CQC-m 0): 90%
- % visual injury, Ob ([6]; compound 70 g/ha, CQC-m 0): 97%
- % visual injury, Ob ([3]; compound 4.380 g/ha, CQC-m 0): 15%
- % visual injury, Ob ([3]; compound 8.75 g/ha, CQC-m 0): 27%
- % visual injury, Ob ([3]; compound 17.5 g/ha, CQC-m 0): 42%
- % visual injury, Ob ([3]; compound 35 g/ha, CQC-m 0): 53%
- % visual injury, Ob ([3]; compound 70 g/ha, CQC-m 0): 70%

Compound: CCCCOC(=O)c1nc(-c2ccc3cc[nH]c3c2F)c(F)c(N)c1Cl [compound 9]
- pest or weed control at 4.38 g/ha [5]: 90%
- pest or weed control at 8.75 g/ha ([5]; compound 8.75 g/ha): 87%
- pest or weed control at 17.5 g/ha ([5]; compound 17.5 g/ha): 100%
- pest or weed control at 35 g/ha ([5]; compound 35 g/ha): 93%
- pest or weed control at 70 g/ha [5]: 100%
- plant injury at 4.38 g/ha [2]: 60%
- plant injury at 8.75 g/ha ([2]; compound 8.75 g/ha): 60%
- plant injury at 17.5 g/ha ([2]; compound 17.5 g/ha): 90%
- plant injury at 35 g/ha ([2]; compound 35 g/ha): 98%
- plant injury at 70 g/ha ([2]; compound 70 g/ha): 100%
- % visual injury, Ob ([6]; compound 4.380 g/ha, CQC-m 0): 83%
- % visual injury, Ob ([6]; compound 8.75 g/ha, CQC-m 0): 90%
- % visual injury, Ob ([6]; compound 17.5 g/ha, CQC-m 0): 100%
- % visual injury, Ob ([6]; compound 35 g/ha, CQC-m 0): 100%
- % visual injury, Ob ([6]; compound 70 g/ha, CQC-m 0): 100%
- % visual injury, Ob ([3]; compound 4.380 g/ha, CQC-m 0): 10%
- % visual injury, Ob ([3]; compound 8.75 g/ha, CQC-m 0): 25%
- % visual injury, Ob ([3]; compound 17.5 g/ha, CQC-m 0): 30%
- % visual injury, Ob ([3]; compound 35 g/ha, CQC-m 0): 50%
- % visual injury, Ob ([3]; compound 70 g/ha, CQC-m 0): 60%
- pest or weed control at 4.38 g/ha [4]: 10%
- pest or weed control at 8.75 g/ha [4]: 30%
- pest or weed control at 17.5 g/ha [4]: 70%
- pest or weed control at 35 g/ha [4]: 95%
- pest or weed control at 70 g/ha [4]: 97%
